Calls of active or inactive are those of the source. No cut-off for these calls is given here.
Test system: Human immunodeficiency virus
Experiment: Antiviral activity against HIV assessed as inhibition of viral replication
Type: functional, organism-based

Structure (SMILES) | Activity
COc1cc(O)cc(C/C=C(\C)CC/C=C(\C)CCC=C(C)C)c1O | inactive
COC1=CC(=O)C=C(C/C=C(\C)CC/C=C(\C)CCC=C(C)C)C1=O | inactive

From ChEMBL document CHEMBL1149062, “A Sesquiterpene Quinone and Hydroquinone from the Southern Australian Marine Sponge, Thorecta choanoides” (J Nat Prod, 1994)
